Patent US8501936B2 (priority 2009, dated 2013)

The molecules below were run against human JAK2 (Homo sapiens (Human), UniProt O60674). Details: read-out: JAK2 IC50.
human JAK2, sequence (O60674 815-1132): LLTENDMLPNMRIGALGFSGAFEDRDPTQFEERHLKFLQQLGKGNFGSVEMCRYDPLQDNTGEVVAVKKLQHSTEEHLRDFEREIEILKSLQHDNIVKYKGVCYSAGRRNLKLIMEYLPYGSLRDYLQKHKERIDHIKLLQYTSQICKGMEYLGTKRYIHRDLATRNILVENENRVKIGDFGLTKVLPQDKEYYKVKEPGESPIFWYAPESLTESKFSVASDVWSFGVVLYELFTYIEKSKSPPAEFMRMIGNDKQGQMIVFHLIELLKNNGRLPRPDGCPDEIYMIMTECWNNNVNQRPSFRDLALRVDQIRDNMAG

**Q.** With `c1ccc(Nc2nc3ccccn3n2)cc1` [Example 1, Phenyl-[1,2,4]triazolo[1,5-a]pyridin-2-yl-amine] as the molecule, how does the IC50 read?
**A.** 1090 nM

**Q.** For `c1cc(-c2ccncc2)c2nc(Nc3ccc(OCCN4CCCC4)cc3)nn2c1` [Example 15, (8-pyridin-4-yl-[1,2,4]triazolo[1,5-a]pyridin-2-yl)-[4-(2-pyrrolidin-1-yl-ethoxy)-phenyl]-amine], which IC50 is on record?
**A.** 3000 nM

**Q.** With `CS(=O)(=O)c1ccc(-c2cccn3nc(Nc4ccc(N5CCCCC5)cc4)nc23)cc1` [Example 18, [8-(4-Methanesulfonyl-phenyl)-[1,2,4]triazolo[1,5-a]pyridin-2-yl]-(4-piperidin-1-yl-phenyl)-amine] as the molecule, how does the IC50 read?
**A.** 0.6 nM

**Q.** How did the IC50 turn out when `COc1ccccc1Nc1nc2c(-c3cccc(C(F)(F)F)c3)cccn2n1` [Example 21, (2-Methoxy-phenyl)-[8-(3-trifluoromethyl-phenyl)-[1,2,4]triazolo[1,5-a]pyridin-2-yl]-amine] was run?
**A.** 3000 nM

Each molecule was assayed against human FAK (Homo sapiens (Human), UniProt Q05397). Details: read-out: FAK IC50.
human FAK, sequence (Q05397 whole entry): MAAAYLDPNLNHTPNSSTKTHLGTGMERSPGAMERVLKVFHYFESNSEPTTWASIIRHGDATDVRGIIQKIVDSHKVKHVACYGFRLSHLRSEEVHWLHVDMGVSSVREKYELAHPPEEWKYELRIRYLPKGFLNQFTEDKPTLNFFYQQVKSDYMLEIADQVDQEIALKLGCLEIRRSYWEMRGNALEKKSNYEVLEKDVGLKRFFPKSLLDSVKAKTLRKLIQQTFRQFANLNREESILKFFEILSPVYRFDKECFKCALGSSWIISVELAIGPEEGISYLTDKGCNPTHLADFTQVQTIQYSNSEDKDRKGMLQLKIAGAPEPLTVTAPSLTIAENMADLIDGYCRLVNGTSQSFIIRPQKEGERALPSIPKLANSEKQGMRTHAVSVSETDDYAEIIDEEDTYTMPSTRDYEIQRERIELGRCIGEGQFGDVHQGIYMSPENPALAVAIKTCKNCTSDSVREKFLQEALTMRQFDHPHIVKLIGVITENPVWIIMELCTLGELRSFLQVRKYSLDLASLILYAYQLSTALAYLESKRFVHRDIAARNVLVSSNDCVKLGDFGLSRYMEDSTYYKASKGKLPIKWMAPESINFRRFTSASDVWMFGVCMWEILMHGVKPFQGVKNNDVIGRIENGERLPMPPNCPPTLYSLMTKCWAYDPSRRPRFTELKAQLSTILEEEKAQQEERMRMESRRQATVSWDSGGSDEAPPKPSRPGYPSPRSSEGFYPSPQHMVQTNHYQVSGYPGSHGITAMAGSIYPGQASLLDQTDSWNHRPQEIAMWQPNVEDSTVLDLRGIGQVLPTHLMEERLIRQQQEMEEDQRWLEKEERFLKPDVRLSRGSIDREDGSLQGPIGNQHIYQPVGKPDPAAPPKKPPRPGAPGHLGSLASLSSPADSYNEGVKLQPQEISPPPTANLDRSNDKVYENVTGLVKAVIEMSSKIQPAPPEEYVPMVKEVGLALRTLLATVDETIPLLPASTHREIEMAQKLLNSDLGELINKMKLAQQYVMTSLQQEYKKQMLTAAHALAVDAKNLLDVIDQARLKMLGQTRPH

**Q.** `COc1ccc(Nc2nc3c(-c4ccc(S(C)(=O)=O)cc4)cccn3n2)cc1` [Example 19, [8-(4-Methanesulfonyl-phenyl)-[1,2,4]triazolo[1,5-a]pyridin-2-yl]-(4-methoxy-phenyl)-amine] was tested. Which IC50 did it give?
**A.** 1580 nM

**Q.** `CS(=O)(=O)c1ccc(-c2cccn3nc(Nc4ccc(N5CCC(N6CCOCC6)CC5)cc4)nc23)cc1` [Example 49, [8-(4-Methanesulfonyl-phenyl)-[1,2,4]triazolo[1,5-a]pyridin-2-yl]-[4-(4-morpholin-4-yl-piperidin-1-yl)-phenyl]-amine] was tested. Which IC50 did it give?
**A.** 251 nM

**Q.** With `CN1CCN(c2ccc(Nc3nc4c(-c5ccc(S(=O)(=O)N(C)C)cc5)cccn4n3)cc2)CC1` [Example 54, N,N-Dimethyl-4-{2-[4-(4-methyl-piperazin-1-yl)-phenylamino]-[1,2,4]triazolo[1,5-a]pyridin-8-yl}-benzenesulfonamide] as the molecule, how does the IC50 read?
**A.** 787 nM

**Q.** Which IC50 does the source give for `CS(=O)(=O)c1ccccc1Nc1nc2c(Nc3ccccc3S(C)(=O)=O)cccn2n1` [Example 69, N(2),N(8)-Bis-(2-methanesulfonyl-phenyl)-[1,2,4]triazolo[1,5-a]pyridine-2,8-diamine] here?
**A.** 6500 nM

**Q.** `CS(=O)(=O)c1cccc(-c2cccc3nc(Nc4ccc(CN5CCOCC5)cc4)nn23)c1` [Example 87, [5-(3-Methanesulfonyl-phenyl)-[1,2,4]triazolo[1,5-a]pyridin-2-yl]-(4-morpholin-4-ylmethyl-phenyl)-amine] was tested. Which IC50 did it give?
**A.** 341 nM

**Q.** For `CN1CCN(c2cncc(Nc3nc4cncc(-c5ccc(S(C)(=O)=O)cc5)n4n3)c2)CC1` [Example 108, [5-(4-Methanesulfonyl-phenyl)-[1,2,4]triazolo[1,5-a]pyrazin-2-yl]-[5-(4-methyl-piperazin-1-yl)-pyridin-3-yl]-amine], which IC50 is on record?
**A.** 3370 nM

**Q.** Which IC50 does the source give for `CN1CCN(c2ccc(Nc3nc4c(Nc5cccc(S(C)(=O)=O)c5)cccn4n3)cc2)CC1` [Example 109, N(8)-(3-Methanesulfonyl-phenyl)-N(2)-[4-(4-methyl-piperazin-1-yl)-phenyl]-[1,2,4]triazolo[1,5-a]pyridine-2,8-diamine] here?
**A.** 10000 nM

**Q.** `CN1CCN(c2ccc(Nc3nc4c(-c5cccc(N(C)S(C)(=O)=O)c5)cccn4n3)cc2)CC1` [Example 127, N-Methyl-N-(3-{2-[4-(4-methyl-piperazin-1-yl)-phenylamino]-[1,2,4]triazolo[1,5-a]pyridin-8-yl}-phenyl)-methanesulfonamide] was tested. Which IC50 did it give?
**A.** 3130 nM

**Q.** Which IC50 does the source give for `CN1C(=O)Cc2cc(Nc3nc4c(NCc5cccnc5N(C)S(C)(=O)=O)cccn4n3)ccc21` [Example 146, N-Methyl-N-(3-{[2-(1-methyl-2-oxo-2,3-dihydro-1H-indol-5-ylamino)-[1,2,4]triazolo[1,5-a]pyridin-8-ylamino]-methyl}-pyridin-2-yl)-methanesulfonamide] here?
**A.** 106 nM

**Q.** With `CN1CCN(c2cccc(Nc3nc4c(NCc5ccccc5N(C)S(C)(=O)=O)cccn4n3)c2)CC1` [Example 148, N-Methyl-N-[2-({2-[3-(4-methyl-piperazin-1-yl)-phenylamino]-[1,2,4]triazolo[1,5-a]pyridin-8-ylamino}-methyl)-phenyl]-methanesulfonamide] as the molecule, how does the IC50 read?
**A.** 14.6 nM

**Q.** With `CN1CCC(c2ccc(Nc3nc4c(NCc5ccccc5CN(C)S(C)(=O)=O)cccn4n3)cc2)CC1` [Example 159, N-Methyl-N-[2-({2-[4-(1-methyl-piperidin-4-yl)-phenylamino]-[1,2,4]triazolo[1,5-a]pyridin-8-ylamino}-methyl)-benzyl]-methanesulfonamide] as the molecule, how does the IC50 read?
**A.** 538 nM

**Q.** `CN1CCN(c2ccc(Nc3nc4c(NCC5CCCN5S(C)(=O)=O)cccn4n3)cc2)CC1` (centres unmarked) [Example 170, N(8)-(1-Methanesulfonyl-pyrrolidin-2-ylmethyl)-N(2)-[4-(4-methyl-piperazin-1-yl)-phenyl]-[1,2,4]triazolo[1,5-a]pyridine-2,8-diamine] was tested. Which IC50 did it give?
**A.** 872 nM

**Q.** With `CS(=O)(=O)c1ccc(-c2cccn3nc(Nc4cccc(C5CCNCC5)c4)nc23)cc1` [Example 182, [8-(4-Methanesulfonyl-phenyl)-[1,2,4]triazolo[1,5-a]pyridin-2-yl]-(3-piperidin-4-yl-phenyl)-amine] as the molecule, how does the IC50 read?
**A.** 1000 nM

**Q.** For `CS(=O)(=O)CCN1CCC(c2cccc(Nc3nc4c(-c5ccc(S(C)(=O)=O)cc5)cccn4n3)c2)CC1` [Example 190, {3-[1-(2-Methanesulfonyl-ethyl)-piperidin-4-yl]-phenyl}-[8-(4-methanesulfonyl-phenyl)-[1,2,4]triazolo[1,5-a]pyridin-2-yl]-amine], which IC50 is on record?
**A.** 580 nM

**Q.** With `CCN1CCN(c2cccc(Nc3nc4c(-c5ccc(S(C)(=O)=O)cc5)cccn4n3)c2)C(=O)C1` [Example 205, 4-Ethyl-1-{3-[8-(4-methanesulfonyl-phenyl)-[1,2,4]triazolo[1,5-a]pyridin-2-ylamino]-phenyl}-piperazin-2-one] as the molecule, how does the IC50 read?
**A.** 10000 nM

**Q.** With `CCn1cc(Nc2nc3c(-c4ccc(C(F)(F)F)cc4)cccn3n2)cn1` [Example 215, (1-Ethyl-1H-pyrazol-4-yl)-[8-(4-trifluoromethyl-phenyl)-[1,2,4]triazolo[1,5-a]pyridin-2-yl]-amine] as the molecule, how does the IC50 read?
**A.** 10000 nM

**Q.** For `COc1cc(C(F)(F)F)ccc1-c1cccc2nc(Nc3ccc4c(c3)CCN(CCS(C)(=O)=O)CC4)nn12` [Example 238], which IC50 is on record?
**A.** 1950 nM

**Q.** `FC1(F)Oc2cccc(-c3cccn4nc(Nc5ccc6c(c5)CCNCC6)nc34)c2O1` [Example 244, [8-(2,2-difluoro-1,3-benzodioxol-4-yl)-[1,2,4]triazolo[1,5-a]pyridin-2-yl]-(2,3,4,5-tetrahydro-1H-3-benzazepin-7-yl)amine] was tested. Which IC50 did it give?
**A.** 6500 nM

**Q.** Which IC50 does the source give for `CN1CCN(c2ccc(Nc3nc4c(OCc5cccc(Cl)c5)cccn4n3)cc2)CC1` [Example 260, [8-(3-Chloro-benzyloxy)-[1,2,4]triazolo[1,5-a]pyridin-2-yl]-[4-(4-methyl-piperazin-1-yl)-phenyl]-amine] here?
**A.** 1100 nM

**Q.** With `CN1CCN(c2cccc(Nc3nc4c(OCc5ccccc5C#N)cccn4n3)c2)CC1` [Example 263, 2-{2-[3-(4-Methyl-piperazin-1-yl)-phenylamino]-[1,2,4]triazolo[1,5-a]pyridin-8-yloxymethyl}-benzonitrile] as the molecule, how does the IC50 read?
**A.** 3000 nM

**Q.** With `Fc1ccc(C(F)(F)F)cc1-c1cccn2nc(Nc3ccc4c(c3)CCNCC4)nc12` [Example 270, [8-(2-Fluoro-5-trifluoromethyl-phenyl)-[1,2,4]triazolo[1,5-a]pyridin-2-yl]-[2,3,4,5-tetrahydro-1H-benzo[d]azopin-7-yl]-amine] as the molecule, how does the IC50 read?
**A.** 6500 nM

**Q.** With `O=c1[nH]cccc1-c1cccn2nc(Nc3ccc4ncccc4c3)nc12` [Example 276, 3-[2-(Quinolin-6-ylamino)-[1,2,4]triazolo[1,5-a]pyridin-8-yl]-1H-pyridin-2-one] as the molecule, how does the IC50 read?
**A.** 10000 nM

**Q.** How did the IC50 turn out when `CN(C)C(=O)CN1CCC(c2ccc(Nc3nc4c(-c5cnn(-c6ccc(F)cc6)c5)cccn4n3)cc2)CC1` [Example 283, 2-[4-(4-{8-{1-(4-Fluoro-phenyl)1H-pyrazol-4-yl}-[1,2,4]triazolo[1,5-a]pyridine-2-ylamino}-phenyl)-piperidin-1-yl]-N,N-dimethyl-acetamide] was run?
**A.** 1370 nM

**Q.** With `CC(C)Oc1ccccc1-c1cccn2nc(Nc3ccc4c(c3)CCNCC4)nc12` [Example 299, [8-(2-Isopropoxy-phenyl]-[1,2,4]triazolo[1,5a]pyridine-2-yl]-(2,3,4,5-tetrahydro-benzo[d]azepin-7-yl)-amine] as the molecule, how does the IC50 read?
**A.** 999 nM

**Q.** For `CC(C)Oc1ccc(C(F)(F)F)cc1-c1cccn2nc(Nc3ccc4c(c3)CCN(CC(=O)N(C)C)CC4)nc12` [Example 326, 2-{7-[8-(2-Isopropoxy-5-trifluoromethyl-phenyl)-[1,2,4]triazolo[1,5-a]pyridin-2-ylamino]-1,2,4,5-tetrahydro-3-benzazepin-3-yl}-N,N-dimethyl-acetamide], which IC50 is on record?
**A.** 5500 nM

**Q.** For `COc1cccc(-c2cccn3nc(Nc4ccc5c(c4)CNC5)nc23)c1` [Example 346, (2,3-Dihydro-1H-isoindol-5-yl)-[8-(3-methoxy-phenyl)-[1,2,4]-triazolo[1,5-a]pyridin-2-yl]-amine], which IC50 is on record?
**A.** 999 nM

**Q.** `FC(F)COc1ccccc1-c1cccn2nc(Nc3ccc4c(c3)CCNCC4)nc12` [Example 367, {8-[2-(2,2-Difluoro-ethoxy)-phenyl]-[1,2,4]triazolo[1,5-a]pyridin-2-yl}-(2,3,4,5-tetrahydro-1H-3-benzazepin-7-yl)-amine] was tested. Which IC50 did it give?
**A.** 1910 nM

**Q.** With `CC(C)COc1ccc(C(F)(F)F)cc1-c1cccn2nc(Nc3ccc4c(c3)CCNCC4)nc12` [Example 379, [8-(2-Isobutoxy-5-trifluoromethyl-phenyl)-[1,2,4]triazolo[1,5-a]pyridin-2-yl]-(2,3,4,5-tetrahydro-1H-3-benzazepin-7-yl)-amine] as the molecule, how does the IC50 read?
**A.** 3000 nM

**Q.** How did the IC50 turn out when `COc1cccc(CNc2cccn3nc(Nc4ccncc4)nc23)c1` [Example 399, N(8)-(3-Methoxy-benzyl)-N(2)-pyridin-4-yl-[1,2,4]triazolo[1,5-a]pyridine-2,8-diamine] was run?
**A.** 10000 nM

**Q.** For `COc1ccccc1CNc1cccn2nc(Nc3ccncc3)nc12` [Example 401, N(8)-(2-Methoxy-benzyl)-N(2)-pyridin-4-yl-[1,2,4]triazolo[1,5-a]pyridine-2,8-diamine], which IC50 is on record?
**A.** 6500 nM

**Q.** Which IC50 does the source give for `COc1ccc(C(F)(F)F)cc1-c1cccn2nc(Nc3cccc(C4CCN(CC(=O)N(C)C)CC4)c3)nc12` [Example 410] here?
**A.** 658 nM
